The source of these data is patent publication US20030170791A1, “Gene family encoding membrane steroid receptors” (priority 2001, published 2003).

pKd: −log10 of the molar value.

In test [1] the target is T1, seatrout recombinant mPR produced in E. coli (Cynoscion nebulosus, UniProt Q801D8).
T1 construct: The coding region of the steroid membrane receptor was amplified by PCR from a full-length cDNA plasmid clone; made in house; host or cells: E. coli BL21 (DE3), pET vector
T1 sequence (Q801D8 1-352): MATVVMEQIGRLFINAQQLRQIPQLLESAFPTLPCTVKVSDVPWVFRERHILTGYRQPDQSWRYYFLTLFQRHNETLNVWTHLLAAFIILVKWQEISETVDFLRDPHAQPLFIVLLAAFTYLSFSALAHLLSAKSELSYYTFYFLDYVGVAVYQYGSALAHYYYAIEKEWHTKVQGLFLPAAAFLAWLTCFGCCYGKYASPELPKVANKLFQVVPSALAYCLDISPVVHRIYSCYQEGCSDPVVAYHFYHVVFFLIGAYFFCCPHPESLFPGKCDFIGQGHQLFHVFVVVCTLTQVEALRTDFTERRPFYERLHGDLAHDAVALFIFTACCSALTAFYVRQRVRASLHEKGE
Kind of test: Steroid binding to recombinant seatrout mPR produced in E. coli (single-point, competition, saturation, kinetics). The conditions noted are these: for specific binding of 3H-steroid (steroid specificity): single-point assay, 10 nM 3H-steroid with or without 100-fold excess non-radioactive steroid. The procedure:
The cloned membrane progestin receptor was expressed in E. coli and the binding of the recombinant protein to steroids was analyzed by a radiolabeled receptor assay.
(§1) The PCR products were purified by electrophoresis using low-melting gel and a QIAquick Gel Extraction Kit. The purified PCR product was ligated into a pET expression vector. The pET vector was transformed into BL21 (DE3) E. coli cells. The positive clones were purified and sequenced. The plasmid without an insert was used as control. Recombinant protein was induced with IPTG at 25° C. and soluble recombinant proteins were extracted and analyzed.
Initially, steroid specificity of the recombinant receptor was determined from single-point competition assays using 10 nM ^3H-steroid in the absence (total binding) or presence of 100-fold excess non-radioactive steroid (nonspecific binding, FIG. 8).
Full competition curves were generated with 10 nM 3H-progesterone (total binding) or in combination with 1 nM-10 μM of various steroids (FIG. 8).
(§2) Saturation kinetics of H^3-progesterone binding to the recombinant receptor were conducted with 7 progesterone concentrations (range 0.5-40 nM) in the absence (total binding) or presence of 1 μM excess cold steroid (nonspecific binding, FIG. 11).

The target of test [2] is T2, recombinant human kidney mSR (Homo sapiens, UniProt Q9NXK6).
T2 construct: The coding region of the steroid membrane receptor was amplified by PCR from a full-length cDNA plasmid clone; made in house; host or cells: E. coli
T2 sequence (Q9NXK6 1-330): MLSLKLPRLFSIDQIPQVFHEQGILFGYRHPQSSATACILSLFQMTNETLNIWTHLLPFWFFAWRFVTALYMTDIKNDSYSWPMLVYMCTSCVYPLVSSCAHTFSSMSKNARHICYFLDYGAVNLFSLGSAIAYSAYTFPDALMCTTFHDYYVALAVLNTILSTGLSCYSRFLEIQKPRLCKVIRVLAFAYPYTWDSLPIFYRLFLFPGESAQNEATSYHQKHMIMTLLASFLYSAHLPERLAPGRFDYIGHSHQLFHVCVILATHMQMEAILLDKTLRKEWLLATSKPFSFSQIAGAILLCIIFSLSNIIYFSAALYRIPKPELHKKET
Kind of test: 3H-progesterone binding to recombinant human kidney mSR (saturation, kinetics, competition). The settings on record: for displacement of 3H-progesterone: competition curves, 10 nM 3H-progesterone, 1 nM-10 μM competitor. The method, then: (§3) Receptor Binding of Human Membrane Steroid Receptors. Mouse testicular and human testicular and kidney mSR were expressed in E. coli and binding of the recombinant proteins to steroids was studied. The membrane steroid receptor from human brain was not expressed since the clone only contains part of the coding region.
Binding Characters of Human Kidney Membrane Steroid Receptor. Saturation kinetics of ^3H-progesterone binding to the recombinant human kidney mSR was conducted with 7 progesterone concentrations (range 0.5-40 nM) in the absence (total binding) or presence of 1 μM excess cold steroid (nonspecific binding, FIG. 23).
The specific binding dissociated quickly with a t1/2 dissociation of 2 minutes (FIG. 24).
Full competition curves were generated with 10 nM 3 H-progesterone (total binding) or in combination with 1 nM-10 μM of various steroids (FIG. 25, 26). […] This binding was very specific for 21 carbon steroids lacking a functional group at the 11 position.
On the technique in general: Displacement assays read how much labelled ligand stays bound in the presence of the test substance.

Another test relates to E. coli control proteins. Kind of test: Steroid binding to E. coli control proteins (vector without insert). The settings on record: for binding to the control proteins: single-point assay, 10 nM 3H-steroid. The method, then: as §1
Initially, steroid specificity of the recombinant receptor was determined from single-point competition assays using 10 nM ^3H-steroid in the absence (total binding) or presence of 100-fold excess non-radioactive steroid (nonspecific binding, FIG. 8). […] No binding of P4 and 17-P to the control proteins was observed (FIG. 7).
as §2

The target of test [3] is T3, recombinant mouse testicular mSR (Mus musculus, UniProt Q80ZE5).
T3 construct: The coding region of the steroid membrane receptor was amplified by PCR from a full-length cDNA plasmid clone; made in house; host or cells: E. coli
T3 sequence (Q80ZE5 1-354): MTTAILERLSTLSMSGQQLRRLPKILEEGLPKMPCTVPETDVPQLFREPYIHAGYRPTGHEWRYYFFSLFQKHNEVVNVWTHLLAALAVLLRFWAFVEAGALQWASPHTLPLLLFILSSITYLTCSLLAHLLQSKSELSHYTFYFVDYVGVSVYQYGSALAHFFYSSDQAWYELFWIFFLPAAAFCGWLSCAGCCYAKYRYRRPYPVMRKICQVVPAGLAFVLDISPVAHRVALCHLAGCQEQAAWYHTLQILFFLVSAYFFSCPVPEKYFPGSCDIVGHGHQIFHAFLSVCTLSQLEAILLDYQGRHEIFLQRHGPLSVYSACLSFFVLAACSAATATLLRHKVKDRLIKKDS
Put plainly: Saturation/Scatchard analysis of 3H-progesterone binding to recombinant mouse testicular mSR. The settings on record: Scatchard analysis. The procedure:
as §3
Binding Characteristics of Mouse Testicular Membrane Steroid Receptor. Saturation kinetics of ^3H-progesterone binding to the recombinant mouse testicular mSR was conducted with 7 progesterone concentrations (range 0.5-40 nM) in the absence (total binding) or presence of excess cold steroid (nonspecific binding, FIG. 21).

The target in test [4] is T4, recombinant human testicular mSR (Homo sapiens, UniProt Q86WK9).
T4 construct: The coding region of the steroid membrane receptor was amplified by PCR from a full-length cDNA plasmid clone; made in house; host or cells: E. coli
T4 sequence (Q86WK9 1-346): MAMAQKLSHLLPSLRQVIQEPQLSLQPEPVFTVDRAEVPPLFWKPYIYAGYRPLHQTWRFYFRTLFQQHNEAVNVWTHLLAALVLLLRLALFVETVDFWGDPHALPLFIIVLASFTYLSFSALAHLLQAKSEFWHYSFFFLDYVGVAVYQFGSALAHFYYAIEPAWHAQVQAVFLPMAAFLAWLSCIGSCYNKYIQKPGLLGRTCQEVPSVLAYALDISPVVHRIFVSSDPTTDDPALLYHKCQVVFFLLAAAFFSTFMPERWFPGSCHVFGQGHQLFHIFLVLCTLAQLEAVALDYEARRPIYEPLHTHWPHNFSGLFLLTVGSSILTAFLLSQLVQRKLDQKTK
Kind of test: Saturation/Scatchard analysis of 3H-progesterone binding to recombinant human testicular mSR. The conditions noted are these: Scatchard analysis. The procedure: as §3
Binding Characteristics of Human Testicular Membrane Steroid Receptor. Saturation kinetics of ^3H-progesterone binding to the recombinant human testicular mSR was conducted with 7 progesterone concentrations (range 0.5-40 nM) in the absence (total binding) or presence of 1 μM excess cold steroid (nonspecific binding, FIG. 22).

Test [5] has as its target T5, solubilized seatrout ovarian membrane progestin (20β-S) receptor (Cynoscion nebulosus, UniProt Q801D8).
T5 sequence (Q801D8 1-352): T1 sequence (Q801D8 1-352)
Put plainly: [3H]20β-S binding to solubilized seatrout ovarian membrane progestin receptor (DCC assay; saturation, Scatchard, association/dissociation). Further details: species or system spotted seatrout (Cynoscion nebulosus). The procedure:
20β-S receptor binding in solubilized membrane preparations was assayed using dextran-coated charcoal (DCC) to separate bound from steroid. The incubation conditions were similar to those used for the intact membrane preparation with the exception that 100-fold excess unlabeled 20β-S was used to determine non-specific binding. The incubation was terminated by adding 1-ml ice-cold DCC suspension (0.1 g dextran T-70 and 1 g charcoal per 100 ml HA buffer). The tubes were vortexed and the reaction mixture was incubated on ice for 5 minutes to absorb free steroid followed by centrifugation at 3200 g for 10 minutes at 4° C. The radioactivities of the filters or supernatants were measured using Beckman LS 6000SC Scintillation Counter (Beckman Instruments Inc., Houston, Tex.).
Saturation kinetics of [^3H]20β-S binding to the solubilized membrane receptor was conducted with six radiolabeled 20β-S concentrations (range 0.25-10 nM) in the absence (total binding) or presence of 100-fold excess cold steroid (non-specific binding). The dissociation constant (Kd) and receptor concentration (Bmax) were calculated from Scatchard plots. One point assays were conducted with 5 nM radiolabeled 20β-S with or without 100-fold excess unlabeled steroid.
The rate of 20β-S association to the solubilized receptor was determined by measuring the specific binding of [^3H]20β-S after-incubation periods of 30 seconds to 24 hours. The rate of dissociation was determined by first allowing samples to equilibrate with tracer for 30 minutes before the addition of 100-fold excess unlabeled 20β-S and incubation for periods of 30 seconds to 24 hours.

For the compound `C[C@@H](O)[C@@]1(O)CC[C@H]2[C@@H]3CCC4=CC(=O)CC[C@]4(C)[C@H]3CC[C@@]21C` [17,20β-P, 17,20β-dihydroxy-4-pregnen-3-one], the “specific binding of 3H-steroid (steroid specificity)” value (shortened to “specific binding of 3H-steroid”) in test [1] is reported as “did not show any specific binding”.
As for `CC[C@H](C)[C@@H]1NC(=O)[C@H](Cc2ccc(O)cc2)NC(=O)[C@@H](N)CSSC[C@@H](C(=O)N2CCC[C@H]2C(=O)N[C@@H](CC(C)C)C(=O)NCC(N)=O)NC(=O)[C@H](CC(N)=O)NC(=O)[C@H](CCC(N)=O)NC1=O` [oxytocin], in test [2], the “displacement of 3H-progesterone” value is recorded as “no displacement”.
`CC(=O)[C@@]1(O)CC[C@H]2[C@@H]3CCC4=CC(=O)CC[C@]4(C)[C@H]3CC[C@@]21C` [17-P, 17-hydroxyprogesterone]: the “displacement of 3H-progesterone” value is on record as “equipotent with P4” in test [2] and “equipotent with P4” in test [1] (competition curves, 10 nM 3H-progesterone, 1 nM-10 μM competitor). Also, the “specific binding of 3H-steroid” value in test [1] is on record as “high affinity”. In addition, the “binding to the control proteins” value in the test on E. coli control proteins is on record as “No binding”.
Take Vitamin D: the “displacement of 3H-progesterone” value in test [2] was “no displacement”.
As for `C[C@]12CC(=O)[C@H]3[C@@H](CCC4=CC(=O)CC[C@@]43C)[C@@H]1CC[C@@H]2O` [11-ketotestosterone], the “specific binding of 3H-steroid” value in test [1] is “no specific binding”.
`CC(=O)[C@H]1CC[C@H]2[C@@H]3CCC4=CC(=O)CC[C@]4(C)[C@H]3CC[C@]12C` [progesterone]: the Bmax in test [3] is on record as 0.304 nM; in test [2] (Scatchard analysis), 0.54 nM; in test [4], 0.47 nM; in test [1] (Scatchard analysis, 3H-progesterone), 0.49 nM. In addition, the pKd (in general, the negative decadic logarithm of the Kd, by convention in mol/L) was 7.54 in test [3] (3H-progesterone 0.5-40 nM); 7.55 in test [2] (Scatchard analysis, 3H-progesterone 0.5-40 nM); 7.43 in test [4] (3H-progesterone 0.5-40 nM); 7.52 in test [1]. In addition, the “specific binding of 3H-steroid” value in test [1] is “Highest specific binding”. The “specific binding to E. coli control proteins” value in the test with E. coli control proteins (saturation analysis, 3H-progesterone) was “no specific binding”. Further, the “binding to the control proteins” value in the test on E. coli control proteins is listed as “No binding”.
Regarding `CC12CCC(=O)C=C1CCC1C2CCC2(C)C1CCC2(O)C(O)CO` (stereo not drawn) [20β-S, 17,20β,21-trihydroxy-4-pregnen-3-one], the Bmax in test [5] (Scatchard analysis, [3H]20β-S) came to 0.204 pmol g^−1 ovary. Besides, the “time to full displacement” value in test [5] (after 100-fold excess unlabeled 20β-S) was ≤ 20 min. For the same compound, the “time to reach saturation of binding” value in test [5] (equilibrium study) was ≤ 15 min. Moreover, the “concentration at which saturation was achieved” value in test [5] (saturation analysis) was “approximately 10 nM”. The “specific binding of 3H-steroid” value in test [1] is on record as “did not show any specific binding”.
In the case of `C[C@]12CCC(=O)C[C@@H]1CC[C@@H]1[C@@H]2CC[C@]2(C)[C@@H](O)CC[C@@H]12` [5α-dihydrotestosterone], the “specific binding of 3H-steroid” value in test [1] is given as “no specific binding”.
Same read-out and setting: next, `C[C@]12CC[C@H]3[C@@H](CCC4=CC(=O)CC[C@@]43C)[C@@H]1CC[C@@H]2O` [testosterone]: “no specific binding”.
